Reference: US20250353820A1, “ANTIVIRAL PYRAZOLOPYRIDINONE COMPOUNDS” (Novartis AG, priority 2019, published 2025)

system: Luciferase-encoding HCMV (AD169 strain); experiment: microbe, parasite or virus in culture; type: cell-based; conditions: read-out: CMV-Luc Cellular EC50; NN-NHDF cells, MOI of 1, 72 hrs

Point of comparison: `CC1=NOC(C(C)(C)S(=O)(=O)C2(CN3CCc4c(C(=O)NCc5ccc(C#N)cc5)nn(C)c4C3=O)CC2)C1` (single isomer, unassigned) [Example 111, (R)- or (S)—N-(4-Cyanobenzyl)-1-methyl-6-((1-((2-(3-methyl-4,5-dihydroisoxazol-5-yl)propan-2-yl)sulfonyl)cyclopropyl)methyl)-7-oxo-4,5,6,7-tetrahydro-1H-pyrazolo[3,4-c]pyridine-3-carboxamide], EC50 159 nM. Against it:
- CC1Cc2c(C(=O)NCc3ccc(C#N)cc3)nn(C)c2C(=O)N1CC1(S(C)(=O)=O)CC1 (single isomer, unassigned) [Example 41, (R)- or (S)—N-(4-cyanobenzyl)-1,5-dimethyl-6-((1-(methylsulfonyl)cyclopropyl)methyl)-7-oxo-4,5,6,7-tetrahydro-1H-pyrazolo[3,4-c]pyridine-3-carboxamide] — higher, > 10000 nM
- CC1Cc2c(C(=O)NCc3ccc(C#N)cc3)nn(C)c2C(=O)N1CC1(S(C)(=O)=O)CC1 (single isomer, unassigned) [Example 42, (R)- or (S)—N-(4-cyanobenzyl)-1,5-dimethyl-6-((1-(methylsulfonyl)cyclopropyl)methyl)-7-oxo-4,5,6,7-tetrahydro-1H-pyrazolo[3,4-c]pyridine-3-carboxamide] — 7.4-fold higher, 1180 nM
- Cn1nc(C(=O)NCc2ccc(C#N)cc2)c2c1C(=O)N(CC1(S(=O)(=O)C(C)(C)COC(F)CO)CC1)CC2 (single isomer, unassigned) [Example 81, (R)- or (S)—N-(4-cyanobenzyl)-6-((1-((1-(1-fluoro-2-hydroxyethoxy)-2-methylpropan-2-yl)sulfonyl)cyclopropyl)methyl)-1-methyl-7-oxo-4,5,6,7-tetrahydro-1H-pyrazolo[3,4-c]pyridine-3-carboxamide] — 3.8-fold lower, 42 nM
- Cn1nc(C(=O)NCc2ccc(C#N)cc2)c2c1C(=O)N(CC1(S(=O)(=O)C(C)(C)COC(F)CN)CC1)CC2 (single isomer, unassigned) [Example 82, (R)- or (S)-6-((1-((1-(2-amino-1-fluoroethoxy)-2-methylpropan-2-yl)sulfonyl)cyclopropyl)methyl)-N-(4-cyanobenzyl)-1-methyl-7-oxo-4,5,6,7-tetrahydro-1H-pyrazolo[3,4-c]pyridine-3-carboxamide] — 5.5-fold lower, 29 nM
- Cn1nc(C(=O)NCc2ccc(C#N)cc2)c2c1C(=O)N(CC1(S(=O)(=O)C(C)(C)COC(F)CN)CC1)CC2 (single isomer, unassigned) [Example 83, (R)- or (S)-6-((1-((1-(2-amino-1-fluoroethoxy)-2-methylpropan-2-yl)sulfonyl)cyclopropyl)methyl)-N-(4-cyanobenzyl)-1-methyl-7-oxo-4,5,6,7-tetrahydro-1H-pyrazolo[3,4-c]pyridine-3-carboxamide] — within 1.5-fold, 133 nM
- CC(O)COCC(C)(C)S(=O)(=O)C1(CN2CCc3c(C(=O)NCc4ccc(C#N)cc4)nn(C)c3C2=O)CC1 (single isomer, unassigned) [Example 91, (R)- or (S)—N-(4-Cyanobenzyl)-6-((1-((1-(2-hydroxypropoxy)-2-methylpropan-2-yl)sulfonyl)cyclopropyl)methyl)-1-methyl-7-oxo-4,5,6,7-tetrahydro-1H-pyrazolo[3,4-c]pyridine-3-carboxamide] — 2.1-fold lower, 76 nM
- CC1=NOC(C(C)(C)S(=O)(=O)C2(CN3CCc4c(C(=O)NCc5ccc(C#N)cc5)nn(C)c4C3=O)CC2)C1 (single isomer, unassigned) [Example 112, (R)- or (S)—N-(4-Cyanobenzyl)-1-methyl-6-((1-((2-(3-methyl-4,5-dihydroisoxazol-5-yl)propan-2-yl)sulfonyl)cyclopropyl)methyl)-7-oxo-4,5,6,7-tetrahydro-1H-pyrazolo[3,4-c]pyridine-3-carboxamide] — 2.5-fold lower, 64 nM
